Data reported in ChEMBL document CHEMBL1134069 (Bioorg Med Chem Lett, 2001).

Biological target: T1, Deoxynucleoside kinase (Drosophila melanogaster, UniProt Q9XZT6)
T1 sequence (Q9XZT6 whole entry): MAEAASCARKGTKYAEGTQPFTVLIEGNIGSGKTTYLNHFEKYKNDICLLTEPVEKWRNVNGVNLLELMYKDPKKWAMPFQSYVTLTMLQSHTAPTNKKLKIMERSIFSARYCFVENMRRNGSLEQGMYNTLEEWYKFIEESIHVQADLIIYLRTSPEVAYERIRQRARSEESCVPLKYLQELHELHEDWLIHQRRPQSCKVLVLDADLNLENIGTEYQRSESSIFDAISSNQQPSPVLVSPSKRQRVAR
Assay: Inhibitory concentration against Drosophila melanogaster deoxyribonucleoside kinase (Dm-dNK)

Compound | IC50 [µM]
CCCCCCCCO[C@H]1[C@H](O)[C@@H](CO)O[C@H]1n1cc(C)c(=O)[nH]c1=O | > 1000
CCCCCCCCCC(=O)O[C@H]1[C@H](O)[C@@H](CO)O[C@H]1n1cc(C)c(=O)[nH]c1=O | 872
CCCCCCCCCC(=O)O[C@H]1[C@H](O)[C@@H](CO)O[C@H]1n1cc(/C=C/Br)c(=O)[nH]c1=O | 163
O=c1[nH]c(=O)n(C2O[C@H](CO)[C@@H](O)[C@@H]2O)cc1/C=C\Br (some centres not stated) | 31.6
Cc1cn([C@@H]2O[C@H](CO)[C@@H](O)[C@H]2OCc2ccccc2)c(=O)[nH]c1=O | > 1000
CCCCCCCCCCCC(=O)O[C@H]1[C@H](O)[C@@H](CO)O[C@H]1n1cc(C)c(=O)[nH]c1=O | > 1000
CCCCC(=O)O[C@H]1[C@H](O)[C@@H](CO)O[C@H]1n1cc(C)c(=O)[nH]c1=O | > 1000
CCCCCCCC(=O)O[C@H]1[C@H](O)[C@@H](CO)O[C@H]1n1cc(/C=C/Br)c(=O)[nH]c1=O | 178
Cc1cn([C@@H]2O[C@H](CO)[C@@H](O)[C@@H]2O)c(=O)[nH]c1=O | 65

Biological target: T2, Thymidine kinase (Human herpesvirus 1 (strain SC16) (HHV-1) (Human herpes simplex virus1), UniProt P06479)
T2 sequence (P06479 whole entry): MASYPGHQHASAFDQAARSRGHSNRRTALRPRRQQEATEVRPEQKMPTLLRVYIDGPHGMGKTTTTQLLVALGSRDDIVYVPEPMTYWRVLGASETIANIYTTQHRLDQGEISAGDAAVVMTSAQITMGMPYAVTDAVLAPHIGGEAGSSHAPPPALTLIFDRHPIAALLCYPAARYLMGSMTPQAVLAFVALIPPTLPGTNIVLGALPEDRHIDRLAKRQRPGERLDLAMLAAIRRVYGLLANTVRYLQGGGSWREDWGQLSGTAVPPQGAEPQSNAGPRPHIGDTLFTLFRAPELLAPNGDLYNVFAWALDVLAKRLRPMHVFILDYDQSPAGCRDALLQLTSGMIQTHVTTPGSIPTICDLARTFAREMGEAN
Assay: Inhibitory concentration against Herpes simplex virus type 1 thymidine kinase(HSV-1 TK)
Set-up: species or system Herpes simplex virus (type 1 / strain SC16)

Compound | IC50 [µM]
CCCCCCCCO[C@H]1[C@H](O)[C@@H](CO)O[C@H]1n1cc(C)c(=O)[nH]c1=O | > 1000
CCCCCCCCCC(=O)O[C@H]1[C@H](O)[C@@H](CO)O[C@H]1n1cc(C)c(=O)[nH]c1=O | > 1000
CCCCCCCCCC(=O)O[C@H]1[C@H](O)[C@@H](CO)O[C@H]1n1cc(/C=C/Br)c(=O)[nH]c1=O | > 1000
O=c1[nH]c(=O)n(C2O[C@H](CO)[C@@H](O)[C@@H]2O)cc1/C=C\Br (some centres not stated) | 4.3
Cc1cn([C@@H]2O[C@H](CO)[C@@H](O)[C@H]2OCc2ccccc2)c(=O)[nH]c1=O | > 1000
CCCCCCCCCCCC(=O)O[C@H]1[C@H](O)[C@@H](CO)O[C@H]1n1cc(C)c(=O)[nH]c1=O | > 1000
CCCCC(=O)O[C@H]1[C@H](O)[C@@H](CO)O[C@H]1n1cc(C)c(=O)[nH]c1=O | > 1000
CCCCCCCC(=O)O[C@H]1[C@H](O)[C@@H](CO)O[C@H]1n1cc(/C=C/Br)c(=O)[nH]c1=O | > 1000
COCC(=O)O[C@H]1[C@H](O)[C@@H](CO)O[C@H]1n1cc(/C=C/Br)c(=O)[nH]c1=O | 84
Cc1cn([C@@H]2O[C@H](CO)[C@@H](O)[C@@H]2O)c(=O)[nH]c1=O | 24
CCCCCCCCO[C@H]1[C@H](O)[C@@H](CO)O[C@H]1n1ccc(N)nc1=O | > 1000
Nc1ccn([C@@H]2O[C@H](CO)[C@@H](O)[C@@H]2O)c(=O)n1 [CYTARABINE] | > 1000

Biological target: T3, Thymidine kinase 2, mitochondrial (Homo sapiens, UniProt O00142)
T3 sequence (O00142 whole entry): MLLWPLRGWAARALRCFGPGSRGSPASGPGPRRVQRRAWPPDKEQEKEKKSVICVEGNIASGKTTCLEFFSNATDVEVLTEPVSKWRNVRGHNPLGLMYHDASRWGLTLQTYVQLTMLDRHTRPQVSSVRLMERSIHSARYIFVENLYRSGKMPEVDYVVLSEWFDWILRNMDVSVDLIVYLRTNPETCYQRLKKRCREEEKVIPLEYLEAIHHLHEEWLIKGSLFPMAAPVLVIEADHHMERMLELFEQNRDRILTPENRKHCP
Assay: Inhibitory concentration against mitochondrial thymidine kinase (TK-2)

Compound | IC50 [µM]
CCCCCCCCO[C@H]1[C@H](O)[C@@H](CO)O[C@H]1n1cc(C)c(=O)[nH]c1=O | 120
CCCCCCCCCC(=O)O[C@H]1[C@H](O)[C@@H](CO)O[C@H]1n1cc(C)c(=O)[nH]c1=O | 27
CCCCCCCCCC(=O)O[C@H]1[C@H](O)[C@@H](CO)O[C@H]1n1cc(/C=C/Br)c(=O)[nH]c1=O | 6.8
O=c1[nH]c(=O)n(C2O[C@H](CO)[C@@H](O)[C@@H]2O)cc1/C=C\Br (some centres not stated) | 43
Cc1cn([C@@H]2O[C@H](CO)[C@@H](O)[C@H]2OCc2ccccc2)c(=O)[nH]c1=O | 801
CCCCCCCCCCCC(=O)O[C@H]1[C@H](O)[C@@H](CO)O[C@H]1n1cc(C)c(=O)[nH]c1=O | 28
CCCCC(=O)O[C@H]1[C@H](O)[C@@H](CO)O[C@H]1n1cc(C)c(=O)[nH]c1=O | > 1000
CCCCCCCC(=O)O[C@H]1[C@H](O)[C@@H](CO)O[C@H]1n1cc(/C=C/Br)c(=O)[nH]c1=O | 6.3
COCC(=O)O[C@H]1[C@H](O)[C@@H](CO)O[C@H]1n1cc(/C=C/Br)c(=O)[nH]c1=O | 402
Cc1cn([C@@H]2O[C@H](CO)[C@@H](O)[C@@H]2O)c(=O)[nH]c1=O | 285
CCCCCCCCO[C@H]1[C@H](O)[C@@H](CO)O[C@H]1n1ccc(N)nc1=O | > 1000
Nc1ccn([C@@H]2O[C@H](CO)[C@@H](O)[C@@H]2O)c(=O)n1 [CYTARABINE] | > 1000

Biological target: T4, Thymidine kinase (Varicella-zoster virus (strain Dumas) (HHV-3) (Human herpesvirus 3), UniProt P09250)
T4 sequence (P09250 whole entry): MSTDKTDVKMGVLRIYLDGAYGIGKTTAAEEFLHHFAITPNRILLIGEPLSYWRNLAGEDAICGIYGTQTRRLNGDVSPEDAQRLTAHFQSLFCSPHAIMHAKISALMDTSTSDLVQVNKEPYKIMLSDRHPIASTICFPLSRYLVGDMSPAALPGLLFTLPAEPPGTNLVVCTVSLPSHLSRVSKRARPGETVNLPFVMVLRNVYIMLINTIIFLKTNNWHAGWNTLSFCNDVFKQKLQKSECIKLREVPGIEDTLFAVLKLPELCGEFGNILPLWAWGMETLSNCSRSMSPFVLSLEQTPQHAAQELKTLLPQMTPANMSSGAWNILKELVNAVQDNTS
Assay: Inhibitory concentration against Varicella- zoster virus thymidine kinase(VZV TK)
Set-up: species or system Human alphaherpesvirus 3

Compound | IC50 [µM]
CCCCCCCCO[C@H]1[C@H](O)[C@@H](CO)O[C@H]1n1cc(C)c(=O)[nH]c1=O | > 1000
CCCCCCCCCC(=O)O[C@H]1[C@H](O)[C@@H](CO)O[C@H]1n1cc(C)c(=O)[nH]c1=O | > 1000
CCCCCCCCCC(=O)O[C@H]1[C@H](O)[C@@H](CO)O[C@H]1n1cc(/C=C/Br)c(=O)[nH]c1=O | 845
O=c1[nH]c(=O)n(C2O[C@H](CO)[C@@H](O)[C@@H]2O)cc1/C=C\Br (some centres not stated) | 3.3
Cc1cn([C@@H]2O[C@H](CO)[C@@H](O)[C@H]2OCc2ccccc2)c(=O)[nH]c1=O | > 1000
CCCCCCCCCCCC(=O)O[C@H]1[C@H](O)[C@@H](CO)O[C@H]1n1cc(C)c(=O)[nH]c1=O | > 1000
CCCCC(=O)O[C@H]1[C@H](O)[C@@H](CO)O[C@H]1n1cc(C)c(=O)[nH]c1=O | > 1000
CCCCCCCC(=O)O[C@H]1[C@H](O)[C@@H](CO)O[C@H]1n1cc(/C=C/Br)c(=O)[nH]c1=O | 718
COCC(=O)O[C@H]1[C@H](O)[C@@H](CO)O[C@H]1n1cc(/C=C/Br)c(=O)[nH]c1=O | 35
Cc1cn([C@@H]2O[C@H](CO)[C@@H](O)[C@@H]2O)c(=O)[nH]c1=O | 17
CCCCCCCCO[C@H]1[C@H](O)[C@@H](CO)O[C@H]1n1ccc(N)nc1=O | > 1000
Nc1ccn([C@@H]2O[C@H](CO)[C@@H](O)[C@@H]2O)c(=O)n1 [CYTARABINE] | > 1000

Biological target: T5, Thymidine kinase, cytosolic (Homo sapiens, UniProt P04183)
T5 sequence (P04183 whole entry): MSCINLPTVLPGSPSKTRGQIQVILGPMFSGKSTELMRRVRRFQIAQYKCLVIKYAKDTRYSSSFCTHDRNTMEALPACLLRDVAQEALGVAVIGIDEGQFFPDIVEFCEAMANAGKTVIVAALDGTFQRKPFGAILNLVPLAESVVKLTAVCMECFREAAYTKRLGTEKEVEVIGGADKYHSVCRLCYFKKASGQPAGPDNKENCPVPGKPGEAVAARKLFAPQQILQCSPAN
Assay: Inhibitory concentration against cytosolic thymidine kinase (TK-1)

Compound | IC50 [µM]
CCCCCCCCO[C@H]1[C@H](O)[C@@H](CO)O[C@H]1n1cc(C)c(=O)[nH]c1=O | > 1000
CCCCCCCCCC(=O)O[C@H]1[C@H](O)[C@@H](CO)O[C@H]1n1cc(C)c(=O)[nH]c1=O | > 1000
CCCCCCCCCC(=O)O[C@H]1[C@H](O)[C@@H](CO)O[C@H]1n1cc(/C=C/Br)c(=O)[nH]c1=O | > 1000
O=c1[nH]c(=O)n(C2O[C@H](CO)[C@@H](O)[C@@H]2O)cc1/C=C\Br (some centres not stated) | > 500
Cc1cn([C@@H]2O[C@H](CO)[C@@H](O)[C@H]2OCc2ccccc2)c(=O)[nH]c1=O | > 1000
CCCCCCCCCCCC(=O)O[C@H]1[C@H](O)[C@@H](CO)O[C@H]1n1cc(C)c(=O)[nH]c1=O | > 1000
CCCCC(=O)O[C@H]1[C@H](O)[C@@H](CO)O[C@H]1n1cc(C)c(=O)[nH]c1=O | > 1000
CCCCCCCC(=O)O[C@H]1[C@H](O)[C@@H](CO)O[C@H]1n1cc(/C=C/Br)c(=O)[nH]c1=O | > 1000
COCC(=O)O[C@H]1[C@H](O)[C@@H](CO)O[C@H]1n1cc(/C=C/Br)c(=O)[nH]c1=O | > 1000
Cc1cn([C@@H]2O[C@H](CO)[C@@H](O)[C@@H]2O)c(=O)[nH]c1=O | > 1000
CCCCCCCCO[C@H]1[C@H](O)[C@@H](CO)O[C@H]1n1ccc(N)nc1=O | > 1000
Nc1ccn([C@@H]2O[C@H](CO)[C@@H](O)[C@@H]2O)c(=O)n1 [CYTARABINE] | > 1000
